Target: Mitogen-activated protein kinase kinase kinase 14 (Homo sapiens, UniProt Q99558)
Test: Inhibition of auto-phosphorylation of recombinant human NF-kappaB-inducing kinase (NIK/MAP3K14) activity (AlphaScreen)
Method: All compounds tested were dissolved in dimethyl sulfoxide (DMSO) and further dilutions were made in assay buffer. The final DMSO concentration was 0.7% (v/v) in assays. […] The assays were carried out in 384 well Proxiplates (Perkin Elmer).

Mitogen-activated protein kinase kinase kinase 14, sequence (Q99558 whole entry): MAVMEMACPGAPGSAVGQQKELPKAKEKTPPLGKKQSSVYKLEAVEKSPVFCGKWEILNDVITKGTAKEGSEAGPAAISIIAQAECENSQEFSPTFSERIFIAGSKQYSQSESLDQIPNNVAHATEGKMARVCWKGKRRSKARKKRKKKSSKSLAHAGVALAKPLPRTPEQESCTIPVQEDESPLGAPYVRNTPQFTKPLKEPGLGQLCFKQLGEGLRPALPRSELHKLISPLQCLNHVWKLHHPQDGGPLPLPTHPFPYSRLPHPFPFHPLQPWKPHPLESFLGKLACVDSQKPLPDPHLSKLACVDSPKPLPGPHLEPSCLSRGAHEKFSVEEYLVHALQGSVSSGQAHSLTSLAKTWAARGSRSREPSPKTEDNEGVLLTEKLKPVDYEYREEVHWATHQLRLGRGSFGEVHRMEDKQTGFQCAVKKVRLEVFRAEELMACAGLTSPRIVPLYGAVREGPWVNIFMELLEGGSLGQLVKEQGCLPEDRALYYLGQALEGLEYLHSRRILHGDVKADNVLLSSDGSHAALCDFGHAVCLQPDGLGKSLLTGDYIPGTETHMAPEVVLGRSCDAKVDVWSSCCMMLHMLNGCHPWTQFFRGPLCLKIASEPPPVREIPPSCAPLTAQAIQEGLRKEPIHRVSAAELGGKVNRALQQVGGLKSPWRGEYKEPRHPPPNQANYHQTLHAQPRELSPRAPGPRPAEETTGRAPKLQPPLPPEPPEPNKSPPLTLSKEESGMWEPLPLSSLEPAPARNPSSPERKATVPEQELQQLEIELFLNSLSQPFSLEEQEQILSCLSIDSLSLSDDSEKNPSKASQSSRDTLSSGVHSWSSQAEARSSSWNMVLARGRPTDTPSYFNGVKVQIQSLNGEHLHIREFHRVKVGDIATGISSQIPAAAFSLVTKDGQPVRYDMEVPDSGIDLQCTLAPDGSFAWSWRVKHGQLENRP

IC50: 800 pM
SMILES: Cc1cc(C#C[C@]2(O)CCN(C)C2=O)cc(-c2nc3c(N)ncnc3s2)c1 [US20240199605, Example 153]
